Experimental data: BigSolDB 2.1

O=c1[nH]cc(F)c(=O)[nH]1
solubility (mole fraction)
Conditions | 283.15 K | 288.15 K | 293.15 K | 298.15 K | 303.15 K | 308.15 K | 313.15 K | 318.15 K | 323.15 K
in DMF | 0.00344 | 0.00452 | 0.00556 | 0.00658 | 0.00779 | 0.00923 | 0.0109 | 0.0127 | 0.0143
in acetic acid | 0.000413 | 0.000496 | 0.000592 | 0.000722 | 0.000891 | 0.0011 | 0.00134 | 0.0017 | 0.0022
in ethanol | 0.00202 | 0.00224 | 0.00245 | 0.00268 | 0.00301 | 0.00331 | 0.00369 | 0.00402 | 0.00451
in formic acid | 0.000481 | 0.000568 | 0.000675 | 0.000827 | 0.000988 | 0.00121 | 0.00147 | 0.00186 | 0.00238
in isobutanol | 0.000629 | 0.000731 | 0.000854 | 0.00101 | 0.0012 | 0.00143 | 0.00173 | 0.00213 | 0.00261
in isopentanol | 0.000714 | 0.000823 | 0.00095 | 0.00112 | 0.00132 | 0.00156 | 0.00188 | 0.00232 | 0.00276
in isopropanol | 0.000549 | 0.000647 | 0.000762 | 0.000908 | 0.00107 | 0.00132 | 0.00161 | 0.00195 | 0.00247
in methanol | 0.00313 | 0.00357 | 0.0041 | 0.00464 | 0.00521 | 0.0058 | 0.00643 | 0.00713 | 0.00787
in n-butanol | 0.00101 | 0.00113 | 0.00128 | 0.00147 | 0.00168 | 0.00197 | 0.00232 | 0.00269 | 0.0031
in n-butyric acid | 0.000247 | 0.000296 | 0.000364 | 0.000444 | 0.000557 | 0.000696 | 0.000877 | 0.00111 | 0.00143
in n-pentanol | 0.000791 | 0.000902 | 0.00104 | 0.0012 | 0.0014 | 0.00166 | 0.00199 | 0.00226 | 0.00286
in n-propanol | 0.00184 | 0.00213 | 0.00242 | 0.00272 | 0.00303 | 0.00338 | 0.00376 | 0.00415 | 0.00465
in propionic acid | 0.000374 | 0.000454 | 0.000536 | 0.000668 | 0.000816 | 0.00101 | 0.0013 | 0.00166 | 0.00214
in water | 0.0011 | 0.00131 | 0.00153 | 0.00175 | 0.00198 | 0.00229 | 0.00256 | 0.00298 | 0.00345
